Columns and labels:
[1] = system: IFNα production by PBMCs; test: IFNα production by PBMCs with VP4 protein alone (control wells); format: cell-based, human; conditions: no virus, no plasma
Experimental: PBMCs separated from whole heparinated blood are distributed into microwells (plate of 96 wells), at the rate of 5 to 8.10^5 cell in 100 μl of supplemented RPMI medium by well. The infection of PBMC is made with a final volume of 100 μl of preparation in each well. After incubation for 48 h at 37° C. under a 5% CO2 atmosphere and 90% humidity, the supernatant is harvested and used immediately for IFNα dosage, or clarified by centrifugation for 10 minutes at 180×g and stored at −80° C. until dosage of the produced IFNα.
The concentration of the produced IFNα is determined with a sensitive and specific technique, the DELFIA method (Dissociation Enhanced Lanthanide FluoroImmmoAssay) (Rönnblom and al 1997).
The dosage of IFNα is performed following the DELFIA principle (Dissociation Enhanced Lanthanide FluoroImmunoAssay), based on a immunofluorescence in retarded phase method using antibodies binding IFNα of which one is labelled with europium. The use of an activation solution will release the europium conjugated with antibodies and emit a fluorescence proportional to the amount of produced IFNα and measured with a fluorometer (fluorometer LKB Wallac 1230 ARCOSO®, Turku, Finlande).
Monoclonal anti-IFNα antibodies LT 273 (5.4 mg/ml) and LT 293 (4.8 mg/ml) supplied by Dr Gunar Alm (Uppsala, Sweden) are coated to the bottom of the wells after an incubation for 12 hours at room temperature. […]

[2] = system: anti-VP4 antibodies in plasmas or serums; test: ELISA of plasmas/serums on wells coated with VP4 protein or VP4 peptides; format: binding, human; conditions: diluted 1/50, antigen coated at 5 μg/ml, 490 nm
Experimental: 40 plasmas from non diabetic patients and 40 plasmas or serums from diabetic patients were assayed.
The VP4 protein or the 5 VP4 peptides, diluted at 5 μg/ml in PBS buffer pH=7.4, are coated in the wells of a microplate of 96 wells (FluoroMunc, MaxiSorp surface, NUNC, Danemark) at the rate of 100 μl/well. The plates are incubated for 1 hour at 37° C. under humid atmosphere, then left for 24 h at room temperature. After 3 washings with PBS buffer, the wells are saturated with 300 μl of saturation buffer for 1 hour at 37° C. under humid atmosphere, before washing 3 times with the washing buffer. Then 250 μl of post-coating buffer are added to each well and the plates are incubated for 24 h at room temperature, then stored at 4° C. until use.
The wells coated with the VP4 protein or the different peptides VP4 are washed 3 times with washing buffer in order to remove the post-coating solution. Then 100 μl of the plasmas or serums diluted to 1/50th in dilution buffer are added to different wells and the plates are incubated for 1 hour at 37° C. under humid atmosphere. Simultaneously, a negative control well containing 100 μl of dilution buffer is carried out. Then the wells are washed 3 times with the washing solution and 100 μl of secondary antibody solution are added to each well. After incubation for 1 h at 37° C. under humid atmosphere, the wells are washed 5 times with the washing solution and 100 μl of substrate solution are added to each well. The plates are incubated for 30 minutes at room temperature and in the dark. The coloured reaction is stopped by addition of 25 μl of H2SO4 2M (1M) per well and the plates are read in a plate reader at a wavelength of 490 nm.
ODs obtained for each serum with the VP4 protein and the different peptides VP4 were divided by the OD obtained with the negative control. The following Tables show the mean +/− standard deviation of the rates of OD obtained with the two series of assayed serums (Patient=diabetic patients, Control=not diabetic). (see FIGS. 8 à 10)

## recombinant VP4 protein: recombinant VP4 protein of CVB4E2, made in E. coli as MBP-VP4 fusion and cleaved by Factor Xa
[1]
  IFNα production by PBMCs, protein alone: do not lead to the IFNα production
[2]; Control = 40 serums of non diabetic patients
  Mean value of OD ratio (OD / OD of negative control), ELISA: 0.695
[2]; Patient = 40 serums of diabetic patients
  Mean value of OD ratio (OD / OD of negative control), ELISA: 2.119
